The results in this text go back to US8299021B2, “Macrocyclic inhibitors of hepatitis C virus replication” (InterMune, Inc., priority 2005, dated 2012).

The test system of the assay is HCV sub-genomic replicon GS4.3 (HuH-7 hepatoma cells). As to the kind of experiment: Quantitation by ELISA of neomycin phosphotransferase II (NPTII) in the HCV sub-genomic replicon, GS4.3. It is filed as cell-based. The note with it: Hepatitis C virus, read-out: Replicon EC50. An excerpt:
Quantitation by ELISA of the Selectable Marker Protein, Neomycin Phosphotransferase II (NPTII) in the HCV Sub-Genomic Replicon, GS4.3
The HCV sub-genomic replicon (1377/NS3-3′, accession No. AJ242652), stably maintained in HuH-7 hepatoma cells, was created by Lohmann et al. Science 285: 110-113 (1999). The replicon-containing cell culture, designated GS4.3, was obtained from Dr. Christoph Seeger of the Institute for Cancer Research, Fox Chase Cancer Center, Philadelphia, Pa.
GS4.3 cells were maintained at 37° C., 5% CO2, in DMEM (Gibco 11965-092) supplemented with L-glutamine 200 mM (100×) (Gibco25030-081), non-essential amino acids (NEAA)(Biowhittaker 13-114E), heat-inactivated (HI) Fetal Bovine Serum(FBS)(Hyclone SH3007.03) and […] geneticin (G418)(Gibco 10131-035). Cells were sub-divided 1:3 or 4 every 2-3 days.
24 h prior to the assay, GS4.3 cells were collected, counted, and plated in 96-well plates (Costar 3585) at 7500 cells/well in 100 μl standard maintenance medium (above) and incubated in the conditions above. To initiate the assay, culture medium was removed, cells were washed once with PBS (Gibco 10010-023) and 90 μl Assay Medium (DMEM, L-glutamine, NEAA, 10% HI FBS, no G418) was added. Inhibitors were made as a 10× stock in Assay Medium, (3-fold dilutions from 10 μM to […] final concentration, final DMSO concentration 1%), 10 μl were added to duplicate wells, plates were rocked to mix, and incubated as above for 72 h.
An NPTII Elisa kit was obtained from AGDIA, Inc. (Compound direct ELISA test system for Neomycin Phosphotransferase II, PSP 73000/4800). Manufacturer's instructions were followed, with some modifications. 10×PEB-1 lysis buffer was made up to include 500 μM PMSF (Sigma P7626, 50 mM stock in isopropanol). After 72 h incubation, cells were washed once with PBS and 150 μlPEB-1 with PMSF was added per well. Plates were agitated vigorously for 15 minutes, room temperature, then frozen at −70° C. Plates were thawed, lysates were mixed thoroughly, and 100 μl were applied to an NPTII Elisa plate. A standard curve was made. Lysate from DMSO-treated control cells was pooled, serially diluted with PEB-1 with PMSF, and applied to duplicate wells of the ELISA plate, in a range of initial lysate amount of 150 ul-2.5 ul. In addition, 100 μl buffer alone was applied in duplicate as a blank. Plates were sealed and gently agitated at room temperature for 2 h. Following capture incubation, the plates were washed 5×300 μlwith PBS-T (0.5% Tween-20, PBS-T was supplied in the ELISA kit). For detection, a 1× dilution of enzyme conjugate diluent MRS-2 (5×) was made in PBS-T, into which 1:100 dilutions of enzyme conjugates A and B were added, as per instructions. Plates were resealed, and incubated with agitation, covered, room temperature, for 2 h. The washing was then repeated and 100 μlof room temperature TMB substrate was added. After approximately 30 minutes incubation (room temperature, agitation, covered), the reaction was stopped with 50 μl 3M sulfuric acid. Plates were read at 450 nm on a Molecular Devices Versamax plate reader.
Inhibitor effect was expressed as a percentage of DMSO-treated control signal, and inhibition curves were calculated using a 4-parameter equation: y=A+4B-A)/(1+((C/x)^13))), where C is half-maximal activity or EC50.

For orientation: EC50 means the concentration needed to bring the measured effect to its halfway point.

Like-named read-outs stand apart in the source and are kept apart here.

As for `CC(C)(C)C(O)C(=O)NC1CCCCCC=CC2CC2(C(=O)NS(=O)(=O)C2CC2)NC(=O)C2CC(OC(=O)N3Cc4cccc(F)c4C3)CN2C1=O` (single isomer, unassigned) [Compound 248], the EC50 (Huh-7, GS4.3 cells, 72 h) is below 1 µM.

On to `CC(C)S(=O)(=O)NC(=O)[C@@]12C[C@H]1/C=C\CCCCC[C@H](NC(=O)OC1CCCC1)C(=O)N1C[C@H](OC(=O)N3CCc4ccccc4C3)C[C@H]1C(=O)N2` [Compound 118], for which the EC50 (Huh-7, 72 h) is below 0.1 µM.

As for `CS(=O)(=O)NC(=O)[C@@]12C[C@H]1/C=C\CCCCC[C@H](NC(=O)OC1CCCC1)C(=O)N1C[C@H](OC(=O)N3CCc4ccccc4C3)C[C@H]1C(=O)N2` [Compound 119], for the setting “Huh-7, 72 h”, the EC50 was below 1 µM.

Regarding `COc1ccc(S(=O)(=O)NC(=O)[C@@]23C[C@H]2/C=C\CCCCC[C@H](NC(=O)OC2CCCC2)C(=O)N2C[C@H](OC(=O)N4CCc5ccccc5C4)C[C@H]2C(=O)N3)cc1` [Compound 120], the EC50 (Huh-7, 72 h) was below 0.1 µM.

As for `CC(C)(C)OC(=O)N[C@H]1CCCCC/C=C\[C@@H]2C[C@@]2(C(=O)O)NC(=O)C2C[C@@H](OC(=O)N3Cc4c(Cl)ccc(Cl)c4C3)CN2C1=O` (some centres unmarked) [Compound 144], the EC50 (Huh-7, GS4.3 cells, 72 h) is below 10 µM.

As for `CC(C)(C)OC(=O)N[C@H]1CCCCC/C=C\[C@@H]2C[C@@]2(C(=O)NS(=O)(=O)C2CC2)NC(=O)C2C[C@@H](OC(=O)N3Cc4c(Cl)ccc(Cl)c4C3)CN2C1=O` (some centres unmarked) [Compound 145], the EC50 (Huh-7, GS4.3 cells, 72 h) was below 0.1 µM.

With `O=C(N[C@H]1CCCCC/C=C\[C@@H]2C[C@@]2(C(=O)O)NC(=O)C2C[C@@H](OC(=O)N3Cc4ccncc4C3)CN2C1=O)OC1CCCC1` (some centres unmarked) [Compound 146], the 50% effective concentration (EC50) (Huh-7, GS4.3 cells, 72 h) is above 10 µM.

For the compound `C[C@H](NC(=O)O[C@@H]1CC2C(=O)N[C@]3(C(=O)NS(=O)(=O)C4CC4)C[C@H]3/C=C\CCCCC[C@H](NC(=O)OC(C)(C)C)C(=O)N2C1)c1ccc(F)cn1` (some centres unmarked) [Compound 149], the EC50 (Huh-7, GS4.3 cells, 72 h) was above 10 µM.

`O=C(N[C@H]1CCCCC/C=C\[C@@H]2C[C@@]2(C(=O)NS(=O)(=O)C2CC2)NC(=O)C2C[C@@H](OC(=O)N3Cc4ccncc4C3)CN2C1=O)OC1CCCC1` (some centres unmarked) [Compound 155]: the EC50 (Huh-7, GS4.3 cells, 72 h) is below 1 µM.

For the compound `N[C@H]1CCCCC/C=C\[C@@H]2C[C@@]2(C(=O)NS(=O)(=O)C2CC2)NC(=O)C2C[C@@H](OC(=O)N3Cc4c(Cl)ccc(Cl)c4C3)CN2C1=O` (some centres unmarked) [Compound 156], where the note is “Huh-7, GS4.3 cells, 72 h”, the EC50 was below 1 µM.

Turning to `Cc1ccccc1S(=O)(=O)NC(=O)[C@@]12C[C@H]1/C=C\CCCCC[C@H](NC(=O)OC(C)(C)C)C(=O)N1C[C@H](OC(=O)N3Cc4cccc(F)c4C3)CC1C(=O)N2` (some centres unmarked) [Compound 157], the EC50 (Huh-7, GS4.3 cells, 72 h) is below 0.1 µM.

With `CN(C)c1ccc(S(=O)(=O)NC(=O)[C@@]23C[C@H]2/C=C\CCCCC[C@H](NC(=O)OC2CCCC2)C(=O)N2C[C@H](OC(=O)N4CCc5ccccc5C4)C[C@H]2C(=O)N3)cc1` [Compound 183], the 50% effective concentration (EC50) (Huh-7, 72 h) was below 0.1 µM.

Regarding `Cc1noc(C)c1S(=O)(=O)NC(=O)[C@@]12C[C@H]1/C=C\CCCCC[C@H](NC(=O)OC1CCCC1)C(=O)N1C[C@H](OC(=O)N3CCc4ccccc4C3)C[C@H]1C(=O)N2` [Compound 187], the EC50 (Huh-7, 72 h) is below 1 µM.

Turning to `COc1cccc(S(=O)(=O)NC(=O)[C@@]23C[C@H]2/C=C\CCCCC[C@H](NC(=O)OC2CCCC2)C(=O)N2C[C@H](OC(=O)N4CCc5ccccc5C4)C[C@H]2C(=O)N3)c1` [Compound 188], under “Huh-7, 72 h”, the EC50 is below 0.1 µM.

Consider `O=C1N[C@]2(C(=O)NS(=O)(=O)C3CC3)C[C@H]2/C=C\CCCCC[C@H](Nc2c(N3C4CCC3CC4)c(=O)c2=O)C(=O)N2C[C@H](OC(=O)N3Cc4cccc(F)c4C3)C[C@@H]12` [Compound 199], for which, for the setting “Huh-7, 72 h”, the EC50 was below 10 µM.

Turning to `N[C@H]1CCCCC/C=C\[C@@H]2C[C@@]2(C(=O)NS(=O)(=O)Nc2ccc(Cl)cc2)NC(=O)[C@@H]2C[C@@H](OC(=O)N3Cc4ccccc4C3)CN2C1=O` [Compound 203], where the note is “Huh-7, 72 h”, the EC50 is above 10 µM.

`O=C(N[C@@H]1CCCCC/C=C\[C@@H]2C[C@]2(C(=O)NS(=O)(=O)N2CCC(F)(F)C2)NC(=O)C2C[C@H](OC(=O)N3Cc4ccccc4C3)CN2C1=O)OC1CCCC1` (some centres unmarked) [Compound 227]: the concentration giving a half-maximal response (EC50) (Huh-7, GS4.3 cells, 72 h) was below 0.1 µM.

Consider `O=C1N[C@]2(C(=O)NS(=O)(=O)C3CC3)C[C@H]2/C=C\CCCCC[C@H](NC(=S)NC2CCCC2)C(=O)N2CC(OC(=O)N3Cc4cccc(F)c4C3)C[C@@H]12` (some centres unmarked) [Compound 240], for which the EC50 (Huh-7, GS4.3 cells, 72 h) was below 1 µM.

`O=C1N[C@]2(C(=O)NS(=O)(=O)C3CC3)C[C@H]2/C=C\CCCCC[C@H](Nc2c(N3CCC3)c(=O)c2=O)C(=O)N2CC(OC(=O)N3CCc4ccccc4C3)C[C@@H]12` (some centres unmarked) [Compound 242]: the EC50 (Huh-7, GS4.3 cells, 72 h) is below 10 µM.

Take `O=C1N[C@]2(C(=O)NS(=O)(=O)C3CC3)C[C@H]2/C=C\CCCCC[C@H](NC(=O)N2CCCC2)C(=O)N2CC(OC(=O)N3Cc4cccc(F)c4C3)C[C@@H]12` (some centres unmarked) [Compound 243]: the EC50 (Huh-7, GS4.3 cells, 72 h) was below 0.1 µM.

Regarding `O=C1N[C@]2(C(=O)NS(=O)(=O)C3CC3)C[C@H]2/C=C\CCCCC[C@H](NC(=S)N2CCCC2)C(=O)N2CC(OC(=O)N3Cc4cccc(F)c4C3)C[C@@H]12` (some centres unmarked) [Compound 244], the EC50 (Huh-7, GS4.3 cells, 72 h) is below 0.1 µM.

Turning to `CN(Cc1ccccc1)C(=O)OC1C[C@H]2C(=O)N[C@]3(C(=O)NS(=O)(=O)C4CC4)C[C@H]3/C=C\CCCCC[C@H](NC(=O)OC(C)(C)C)C(=O)N2C1` (some centres unmarked) [Compound 245], the EC50 (Huh-7, GS4.3 cells, 72 h) is below 1 µM.

Consider `CNc1c(NC(=O)C23C[C@H]2/C=C\CCCCC[C@H](NC(=O)OC(C)(C)C)C(=O)N2C[C@H](OC(=O)N4Cc5cccc(F)c5C4)C[C@H]2C(=O)N3)c(=O)c1=O` (some centres unmarked) [Compound 646], for which the EC50 (Huh-7, GS4.3 cells, 72 h) was above 10 µM.

For the compound `O=C(N[C@H]1CCCCC/C=C\[C@@H]2C[C@@]2(C(=O)NC(=O)C2CC2)NC(=O)C2C[C@@H](OC(=O)N3CCc4ccccc4C3)CN2C1=O)OC1CCCC1` (some centres unmarked) [Compound 706], the EC50 (Huh-7, GS4.3 cells, 72 h) is below 0.1 µM.

Regarding `CC(C)(C)OC(=O)N[C@H]1CCC(O)CC/C=C\[C@@H]2C[C@@]2(C(=O)NS(=O)(=O)C2CC2)NC(=O)[C@@H]2C[C@@H](OC(=O)N3Cc4cccc(F)c4C3)CN2C1=O` (some centres unmarked) [Compound 1018], the EC50 (Huh-7, GS4.3 cells, 72 h) was below 1 µM.

In the case of `CC(C)(C)OC(=O)N[C@H]1COCCC/C=C\[C@@H]2C[C@@]2(C(=O)NS(=O)(=O)C2CC2)NC(=O)[C@@H]2C[C@@H](OC(=O)N3Cc4cccc(Cl)c4C3)CN2C1=O` [Compound 1025], the concentration for a half-maximal effect (EC50) (Huh-7, GS4.3 cells, 72 h) was below 0.1 µM.
